Here are results for 22 compounds from US20130053381A1, “2,4-DIOXO-1,4-DIHYDRO-2H-QUINAZOLIN-3-YL-SULFONAMIDE DERIVATIVES” (NOVARTIS AG, priority 2010, published 2013).

Test [1] addresses AMPA receptor. Briefly: [3H]CNQX binding test (AMPA-receptor binding). More on the design: species or system rat. The procedure: CNQX binding test (Honore et al. Biochem. Pharmacol. 1989, 38: 3207-3212). This test is performed as follows.
Brain membranes: The animals are sacrificed, the brain removed and homogenized in 10 volumes of ice-cold 10% sucrose with a glass/Teflon homogenizer at positions 5 for 30 sec. The membranes are centrifuged at 1000×g for 10 min, and the supernatant centrifuged at 20,000×g for 15 min. The resulting pellet is resuspended in 10 volumes of cold water with a tissue homogenizer (Brinkman Polytron) at position 5 for 15 sec and the suspension centrifuged at 8000×g for 10 min. The supernatant including the buffy layer is centrifuged at 40,000×g for 20 min, the pellet resuspended in 5 volumes of water and the suspension frozen (20-30 min in dry ice/MeOH) and thawed (water-bath at 37° C.) twice. The suspension is centrifuged at 40,000×g for 20 min, the pellet resuspended in 50 mM HEPES/KOH, pH 7.5, and centrifuged at 40,000×g for 10 min. The final pellet is resuspended with a glass/Teflon homogenizer in 5 volumes of HEPES/KOH buffer; 2 mL aliquots are frozen and stored in liquid nitrogen.
Pretreatment of membranes: Membranes are thawed at 35° C. and once washed with 50 mM HEPES/KOH by centrifugation at 39,000×g for 10 min. The final pellet is resuspended with a glass/Teflon homogenizer in the same buffer.
Radioligand binding assay: It is performed using 96-well microtiterplates in a volume of 0.3 mL of 50 mM HEPES/KOH, pH 7.2, 100 μg membrane protein, 5 nM [^3H]-CNQX (NEN) and the compound to be tested. Incubation is performed at 4° C. for 40 min and the reaction is terminated by centrifugation (Sigma 4K10) at 3700×g for 30 min. The pellet is washed once with cold buffer and then dissolved in 0.02 mL of the tissue solubilizer Soluene for 20 min. Two hundred μL of the scintillation fluid Microscint 20 (Packard) are added and the radioactivity is counted in a Packard Topcount scintillation counter at an efficiency of 40-45%. Nonspecific binding is defined by 10 μM CNQX. Assays are performed in triplicate.

The test system of test [2] is OF1 mice. Briefly: Maximal electroshock test (MES Test). The following applies: for responders at 50 mg/kg: p.o. Format: in vivo. Put shortly: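 Readout: fraction of five OF1 mice protected, meaning seizure duration 3 s or less, after a 50 Hz, 18 mA, 0.2 s temporal-electrode shock. Dosing was oral, usually 50 mg/kg, one hour beforehand; ED50 values were derived and post-shock blood taken for exposure.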

Setting [3] is: Table 2 parent compounds, rat, read-out: [3H]CNQX IC50 AMPA receptor binding, rat.
Setting [4] is: Mus musculus, po, pre-treatment time −1 h, read-out: %-Protection.
Setting [5] is: Table 1A parent compounds, AMPA-receptor binding as described for Table 2, read-out: IC50.

Structures are written as SMILES. Read-outs that look alike come from different tables or passages of the source.

Turning to `CCC(OC)c1cc2c(=O)n(NS(C)(=O)=O)c(=O)[nH]c2cc1C(F)(F)F` (centres unmarked) [Example 11.0, N-[2,4-Dioxo-6-(1-methoxy-propyl)-7-trifluoromethyl-1,4-dihydro-2H-quinazolin-3-yl]-methanesulfonamide], the concentration for half-maximal inhibition (IC50) (usually the concentration at which inhibition is half-maximal) in test [1] (setting [3]) is 317 nM. The responders at 50 mg/kg in test [2] (setting [4]) stood at 100%.
Regarding `Cn1nccc1-c1cc2c(=O)n(NS(C)(=O)=O)c(=O)[nH]c2cc1C(F)(F)F` [Example 1.0, N-[6-(2-methyl-2H-pyrazol-3-yl)-2,4-dioxo-7-trifluoromethyl-1,4-dihydro-2H-quinazolin-3-yl]-methanesulfonamide], the IC50 in test [1] (setting [3]) was found to be 208 nM. For the same compound, in test [2] (setting [4]), the responders at 50 mg/kg amounted to 20%.
As to `CS(=O)(=O)Nn1c(=O)[nH]c2cc(C(F)(F)F)c(-n3ccnc3)cc2c1=O` [Example 4.0, N-(6-imidazol-1-yl-2,4-dioxo-7-trifluoromethyl-1,4-dihydro-2H-quinazolin-3-yl)-methanesulfonamide], in test [1] (setting [3]), the IC50 amounted to 42 nM. Besides, in test [2] (Mus musculus, ip, pre-treatment time −0.25 h (footnote g)), the median effective dose (ED50) – broadly, the dose at which the effect has come halfway, by size or by number of responders – worked out at 10.7 mg/kg. The responders at 50 mg/kg in test [2] (setting [4]) amounted to 0%. Moreover, the “%-seizure protection” value in test [2] (single 50 mg/kg p.o. dose, 30 min after treatment, MES Test) worked out at 0%.
Take `CCc1cc2[nH]c(=O)n(NS(C)(=O)=O)c(=O)c2cc1-c1ccnn1CC` [Example 13.0, N-[7-ethyl-6-(2-ethyl-2H-pyrazol-3-yl)-2,4-dioxo-1,4-dihydro-2H-quinazolin-3-yl]-methanesulfonamide]: in test [1] (setting [3]), the 50% inhibitory concentration (IC50) amounted to 341 nM. Also, in test [2] (setting [4]), the responders at 50 mg/kg was determined as 60%.
For the compound `CS(=O)(=O)Nn1c(=O)[nH]c2cc(C(F)(F)F)c([C@H]3CCCO3)cc2c1=O` [Example 10.0, N—((R)-2,4-dioxo-6-tetrahydro-furan-2-yl-7-trifluoromethyl-1,4-dihydro-2H-quinazolin-3-yl)-methanesulfonamide], in test [1] (setting [3]), the IC50 worked out at 159 nM. Also, the responders at 50 mg/kg in test [2] (Mus musculus, po, pre-treatment time −0.5 h (footnote d), read-out: %-Protection) is 0%; in test [2] (setting [4]) it was 100%.
Turning to `CCc1cc2[nH]c(=O)n(NS(C)(=O)=O)c(=O)c2cc1-c1ccnn1C` [Example 2.0, N-[7-ethyl-6-(2-methyl-2H-pyrazol-3-yl)-2,4-dioxo-1,4-dihydro-2H-quinazolin-3-yl]-methanesulfonamide], the IC50 in test [1] (setting [3]) turned out to be 257 nM. Also, the responders at 50 mg/kg in test [2] (setting [4]) is 80%.
Turning to `CCC(O)c1cc2c(=O)n(NS(C)(=O)=O)c(=O)[nH]c2cc1C(F)(F)F` (centres unmarked) [Example 12.0, N-[6-(1-hydroxy-propyl)-2,4-dioxo-7-trifluoromethyl-1,4-dihydro-2H-quinazolin-3-yl]-methanesulfonamide], the IC50 in test [1] (setting [3]) came out at 162 nM. In addition, the responders at 50 mg/kg in test [2] (setting [4]) came to 40%.
Consider `CC(C)c1cc2[nH]c(=O)n(NS(C)(=O)=O)c(=O)c2cc1-c1ccnn1C` [Example 3.0, N-[7-isopropyl-6-(2-methyl-2H-pyrazol-3-yl)-2,4-dioxo-1,4-dihydro-2H-quinazolin-3-yl]-methanesulfonamide], for which, in test [1] (setting [3]), the 50% inhibitory concentration (IC50) turned out to be 189 nM. Also, the responders at 15 mg/kg in test [2] (Mus musculus, po, Dose: 15 mg/kg, p.o. (footnote c), pre-treatment time −1 h, read-out: %-Protection) worked out at 100%. Besides, the responders at 50 mg/kg came out at 0% in test [2] (Mus musculus, po, Table 5, pre-treatment time −0.25 h, read-out: %-Protection); 100% in test [2] (Mus musculus, po, Table 5, pre-treatment time −0.5 h, read-out: %-Protection); 100% in test [2] (Mus musculus, po, Table 5, pre-treatment time −1 h, read-out: %-Protection).
As to `CC(C)n1nccc1-c1cc2c(=O)n(NS(C)(=O)=O)c(=O)[nH]c2cc1C(F)F` [Example 6.0, N-[7-difluoromethyl-6-(2-isopropyl-2H-pyrazol-3-yl)-2,4-dioxo-1,4-dihydro-2H-quinazolin-3-yl]-methanesulfonamide], the 50% inhibitory concentration (IC50) in test [1] (setting [3]) was determined as 110 nM. Also, the responders at 50 mg/kg in test [2] (setting [4]) worked out at 80%. In addition, the responders at 25 mg/kg in test [2] (Mus musculus, po, Dose: 25 mg/kg, p.o. (footnote b), pre-treatment time −1 h, read-out: %-Protection) was 20%.
Regarding `CS(=O)(=O)Nn1c(=O)[nH]c2cc(C(F)(F)F)c(-n3cccc3)cc2c1=O` [Example 8.0, N-(2,4-dioxo-6-pyrrol-1-yl-7-trifluoromethyl-1,4-dihydro-2H-quinazolin-3-yl)-methanesulfonamide], in test [1] (setting [3]), the concentration for half-maximal inhibition (IC50) was found to be 162 nM. The responders at 50 mg/kg in test [2] (setting [4]) was 40%.
For the compound `CS(=O)(=O)Nn1c(=O)[nH]c2cc(C(F)(F)F)c(C3CCCCO3)cc2c1=O` (centres unmarked) [Example 29.0], the IC50 in test [1] (setting [5]) stood at 1080 nM.
Same read-out and setting: the value for `CC(C)OC(C)c1cc2c(=O)n(NS(C)(=O)=O)c(=O)[nH]c2cc1C(F)(F)F` (centres unmarked) [Example 18.0] was 320 nM.
On to `CS(=O)(=O)Nn1c(=O)[nH]c2cc(C(F)(F)F)c(-n3cnnc3)cc2c1=O` [Example 9.0, N-(2,4-dioxo-6-[1,2,4]triazol-4-yl-7-trifluoromethyl-1,4-dihydro-2H-quinazolin-3-yl)-methanesulfonamide], for which the IC50 in test [1] (setting [3]) came out at 46 nM. Also, the responders at 50 mg/kg in test [2] (Mus musculus, po, pre-treatment time −2 h (footnote a), read-out: %-Protection) worked out at 20%.
As to `CS(=O)(=O)Nn1c(=O)[nH]c2cc(C(F)(F)F)c([C@H]3CO[C@@H](CO)C3)cc2c1=O` [Example 47.0], in test [1] (setting [5]), the IC50 came out at 370 nM.
`CC(C)n1nccc1-c1cc2c(=O)n(NS(C)(=O)=O)c(=O)[nH]c2cc1C(F)(F)F` [Example 5.0, N-[6-(2-isopropyl-2H-pyrazol-3-yl)-2,4-dioxo-7-trifluoromethyl-1,4-dihydro-2H-quinazolin-3-yl]-methanesulfonamide]: in test [1] (setting [3]), the IC50 amounted to 87 nM. Also, the responders at 50 mg/kg in test [2] (setting [4]) stood at 80%.
As to `CS(=O)(=O)Nn1c(=O)[nH]c2cc(C(F)(F)F)c(C3CCOC3)cc2c1=O` (centres unmarked) [Example 30.0], in test [1] (setting [5]), the concentration for half-maximal inhibition (IC50) was found to be 220 nM.
The same measure, in the same setting: the result for `C[C@@H]1COC[C@@H]1c1cc2c(=O)n(NS(C)(=O)=O)c(=O)[nH]c2cc1C(F)(F)F` [Example 48.0] reads 520 nM; that for `CC(C)c1cc2[nH]c(=O)n(NS(C)(=O)=O)c(=O)c2cc1C1CCOC1` (centres unmarked) [Example 44.0], 2200 nM; that for `CC(F)c1cc2[nH]c(=O)n(NS(C)(=O)=O)c(=O)c2cc1-c1ccnn1C(C)C` (centres unmarked) [Example 42.0], 220 nM.
`CC(C)n1nccc1-c1cc2c(=O)n(NS(C)(=O)=O)c(=O)[nH]c2cc1CF` [Example 33.0]: the 50% inhibitory concentration (IC50) in test [1] (setting [5]) was determined as 440 nM.
On the same count and under the same terms, the result for `CC(OCC(F)(F)F)c1cc2c(=O)n(NS(C)(=O)=O)c(=O)[nH]c2cc1C(F)(F)F` (centres unmarked) [Example 52.0] reads 1120 nM; that for `CCC(OC(C)C)c1cc2c(=O)n(NS(C)(=O)=O)c(=O)[nH]c2cc1C(F)(F)F` (centres unmarked) [Example 20.0], 380 nM.
